Like-named read-outs stand apart in the source and are kept apart here.
Assays:
Format in all cases: in vivo
[1] = test system: Plasmopara viticola (PLASVI); conditions: for % disease at 500 ppm of substance alone PLASVI: substance alone 500 ppm, untreated check 95
[2] = test system: Phytophthora infestans (PHYTIN); conditions: for % disease at 500 ppm of substance alone PHYTIN: substance alone 500 ppm, untreated check 95
[3] = test system: Pseudoperonospora cubensis (PSPECU); assay: Droplet application on cucumber leaf, growth chamber (Examples 5a-d); conditions: for % disease at 100 ppm of substance alone: substance alone 100 ppm; for % disease at 500 ppm of substance alone: substance alone 500 ppm, untreated check 91%; for % disease at 1000 ppm of substance alone: substance alone 1000 ppm
Protocol: Examples 5a through 5d were conducted in growth chambers on cucumber plants. Cucumbers (Cucumis sativus cv Bush Pickle Hybrid #901261) were grown from seed in 5 cm by 5 cm pots containing MetroMix™ growth medium (Scotts, Marysville, Ohio) and maintained in a glasshouse with supplementary light sources to provide a 14 hour photoperiod at 24-29° C. until the plants were in the 2-3 true leaf stage of growth and the oldest leaf was fully expanded.
For examples 5a through 5d, described below, samples of mancozeb formulated as Dithane DG NT were dissolved in water to form a ½×dilution series. Mancozeb rates were 400, 200, 100 and 50 ppm. Samples of various aldehydes, amino acids, carboxylic acids, amines and alcohols were dissolved in acetone and then mixed with aqueous solutions of mancozeb. Attractant rates in the dilute solutions were 100, 200, 500 or 1000 ppm, depending on the experiment.
Mixtures of attractant or attractant derivative plus mancozeb or mancozeb alone were applied to cucumber as a row of 5 or 7.5 ul droplets using a multi-channel pipetting device. Five droplets spaced 1 cm apart were placed along the mid-rib of the expanded cucumber leaf with the first droplet being positioned at least 1-cm from the leaf apex. Each treatment was replicated three or four times, depending on the experiment. Two to three hours after applying the treatments when droplets had dried, plants were inoculated with a suspension of sporangia of a Pseudoperonospora cubensis (PSPECU) and incubated as described in the methods for sprayed tests. When symptoms were well developed in untreated check plants, the experiment was assessed visually using a template 2 cm wide and 7 cm long with the long axis centered on the mid-rib of the treated leaf.
Reduction in percent disease was calculated by subtracting percent disease on plants receiving a mixture of mancozeb plus the specified test substance from percent disease on plants receiving mancozeb alone. The results for examples 5a-5d are shown below in Tables 7-10; the reduction in percent disease was indicated as follows: […]

[4] = substance 500 ppm with mancozeb 6.25 ppm (Dithane DGNT), foliar spray, inoculated 2 to 3 hours after treatment
[5] = substance 500 ppm with mancozeb 25 ppm (Dithane DGNT), foliar spray, inoculated 2 to 3 hours after treatment
[6] = substance 100 ppm with mancozeb 200 ppm vs mancozeb alone, Table 9
[7] = substance 500 ppm with mancozeb 200 ppm vs mancozeb alone, Table 8
[8] = fungicide with Formulation I at 100 ppm, Table 19
[9] = substance 200 ppm with mancozeb 50 ppm vs mancozeb alone, cucumber
[10] = substance 1000 ppm with mancozeb 50 ppm vs mancozeb alone, cucumber
[11] = substance 100 ppm with mancozeb 200 ppm vs mancozeb alone, Table 10
[12] = aldehyde derivative 100 ppm with mancozeb, Table 17

Structure (SMILES): CC(C)=CC=O [3-methyl-2-butenaldehyde]
- Reduction in percent disease PLASVI [1, 4]: xxx (36-50% reduction in percent disease)
- % disease at 500 ppm of substance alone PLASVI [1]: 95%
- Reduction in percent disease PHYTIN [2, 5]: x (0-20% reduction in percent disease)
- % disease at 500 ppm of substance alone PHYTIN [2]: 95%
- Reduction in % Disease [3, 6]: x (0-20% reduction in percent disease)
- Reduction in % Disease [3, 7]: x (0-20% reduction in percent disease)
- % disease at 100 ppm of substance alone ([3]; untreated check 92%, Table 9): 100%
- % disease at 500 ppm of substance alone [3]: 81%

Structure (SMILES): CCC(C)C=O (stereo not shown) [2-methylbutyraldehyde]
- Reduction in percent disease PLASVI [1, 4]: x (0-20% reduction in percent disease)
- % disease at 500 ppm of substance alone PLASVI [1]: 95%
- Reduction in percent disease PHYTIN [2, 5]: x (0-20% reduction in percent disease)
- % disease at 500 ppm of substance alone PHYTIN [2]: 95%
- Reduction in % Disease [3, 6]: x (0-20% reduction in percent disease)
- Reduction in % Disease [3, 7]: x (0-20% reduction in percent disease)
- % disease at 100 ppm of substance alone ([3]; untreated check 92%, Table 9): 98%
- % disease at 500 ppm of substance alone [3]: 74%

Structure (SMILES): O=[N+]([O-])c1cc(C(F)(F)F)c(Cl)c([N+](=O)[O-])c1Nc1ncc(C(F)(F)F)cc1Cl [Fluazinam, reference compound]
- Reduction in percent disease PLASVI [1, 8]: xxx (36-50% reduction in percent disease)
- Reduction in percent disease PHYTIN [2, 8]: xxx (36-50% reduction in percent disease)

Structure (SMILES): CC(C)CCC(=O)O [Isocaproic acid]
- Reduction in percent disease PLASVI [1, 4]: xxx (36-50% reduction in percent disease)
- % disease at 500 ppm of substance alone PLASVI [1]: 93%
- Reduction in percent disease PHYTIN [2, 5]: xxx (36-50% reduction in percent disease)
- % disease at 500 ppm of substance alone PHYTIN [2]: 95%
- Reduction in % Disease [3, 9]: xxx (36-50% reduction in percent disease)
- Reduction in % Disease [3, 7]: x (0-20% reduction in percent disease)
- Reduction in % Disease [3, 10]: xxx (36-50% reduction in percent disease)
- % disease at 500 ppm of substance alone [3]: 88%
- % disease at 1000 ppm of substance alone ([3]; untreated check 100%): 100%

Structure (SMILES): CON=C(C(=O)OC)c1ccccc1CON=C(C)c1cccc(C(F)(F)F)c1 [Trifloxystrobin, reference compound]
- Reduction in percent disease PLASVI [1, 8]: x (0-20% reduction in percent disease)
- Reduction in percent disease PHYTIN [2, 8]: x (0-20% reduction in percent disease)

Structure (SMILES): CCC(C)C(C)=O (stereo not shown) [3-methyl-2-pentanone]
- Reduction in % Disease [3, 11]: x (0-20% reduction in percent disease)
- % disease at 100 ppm of substance alone ([3]; untreated check 100%, Table 10): 100%

Structure (SMILES): N[C@@H](CCC(=O)O)C(=O)O [Glutamic acid]
- Reduction in percent disease PLASVI [1, 4]: xxx (36-50% reduction in percent disease)
- % disease at 500 ppm of substance alone PLASVI [1]: 93%
- Reduction in percent disease PHYTIN [2, 5]: xx (21-35% reduction in percent disease)
- % disease at 500 ppm of substance alone PHYTIN [2]: 95%
- Reduction in % Disease [3, 9]: xx (21-35% reduction in percent disease)
- Reduction in % Disease [3, 7]: x (0-20% reduction in percent disease)
- Reduction in % Disease [3, 10]: x (0-20% reduction in percent disease)
- % disease at 500 ppm of substance alone [3]: 90%
- % disease at 1000 ppm of substance alone ([3]; untreated check 100%): 100%

Structure (SMILES): O=CCC1CC1 [Cyclopropylacetaldehyde]
- Reduction in percent disease PLASVI [1, 4]: xx (21-35% reduction in percent disease)
- % disease at 500 ppm of substance alone PLASVI [1]: 95%
- Reduction in percent disease PHYTIN [2, 5]: x (0-20% reduction in percent disease)
- % disease at 500 ppm of substance alone PHYTIN [2]: 95%
- Reduction in % Disease [3, 6]: x (0-20% reduction in percent disease)
- Reduction in % Disease [3, 7]: x (0-20% reduction in percent disease)
- % disease at 100 ppm of substance alone ([3]; untreated check 92%, Table 9): 85%
- % disease at 500 ppm of substance alone [3]: 90%

Structure (SMILES): CC(C)(C)CC=O [3,3-dimethylbutyraldehyde]
- Reduction in percent disease PLASVI [1, 4]: x (0-20% reduction in percent disease)
- % disease at 500 ppm of substance alone PLASVI [1]: 87%
- Reduction in percent disease PHYTIN [2, 5]: x (0-20% reduction in percent disease)
- % disease at 500 ppm of substance alone PHYTIN [2]: 95%
- Reduction in % Disease [3, 6]: x (0-20% reduction in percent disease)
- Reduction in % Disease [3, 7]: x (0-20% reduction in percent disease)
- % disease at 100 ppm of substance alone ([3]; untreated check 92%, Table 9): 96%
- % disease at 500 ppm of substance alone [3]: 75%

Structure (SMILES): CC(C)CC(=O)O [Isovaleric acid]
- Reduction in % Disease [3, 9]: xx (21-35% reduction in percent disease)
- Reduction in % Disease [3, 10]: xx (21-35% reduction in percent disease)
- % disease at 1000 ppm of substance alone ([3]; untreated check 100%): 100%

Structure (SMILES): CC(C)CC=NOCc1ccccc1 [Compound Y]
- Reduction in percent disease PHYTIN [2, 12]: x (0-20% reduction in percent disease)

Structure (SMILES): CC(C)C=O [Isobutyraldehyde]
- Reduction in % Disease [3, 6]: x (0-20% reduction in percent disease)
- % disease at 100 ppm of substance alone ([3]; untreated check 92%, Table 9): 97%

Structure (SMILES): CC(C)CCO [Isoamyl alcohol]
- Reduction in % Disease [3, 9]: xx (21-35% reduction in percent disease)
- Reduction in % Disease [3, 10]: x (0-20% reduction in percent disease)
- % disease at 1000 ppm of substance alone ([3]; untreated check 100%): 100%

Structure (SMILES): CC(C)C/C=N/N1CCCCC1 [Compound Z]
- Reduction in percent disease PHYTIN [2, 12]: xx (21-35% reduction in percent disease)

Structure (SMILES): CC(C)C/C=N/N(C)c1ccccc1 [Compound AA]
- Reduction in percent disease PHYTIN [2, 12]: x (0-20% reduction in percent disease)

Structure (SMILES): CC(C)C/C=N/N(Cc1ccccc1)Cc1ccccc1 [Compound W]
- Reduction in percent disease PHYTIN [2, 12]: xx (21-35% reduction in percent disease)

Structure (SMILES): CCCCC=O [Valeraldehyde]
- Reduction in percent disease PLASVI [1, 4]: x (0-20% reduction in percent disease)
- % disease at 500 ppm of substance alone PLASVI [1]: 95%
- Reduction in percent disease PHYTIN [2, 5]: x (0-20% reduction in percent disease)
- % disease at 500 ppm of substance alone PHYTIN [2]: 95%
- Reduction in % Disease [3, 6]: x (0-20% reduction in percent disease)
- Reduction in % Disease [3, 7]: x (0-20% reduction in percent disease)
- % disease at 100 ppm of substance alone ([3]; untreated check 92%, Table 9): 93%
- % disease at 500 ppm of substance alone [3]: 94%

Structure (SMILES): CC(C)C/C=N/NC(=O)c1ccc(O)cc1 [Compound V]
- Reduction in percent disease PHYTIN [2, 12]: xx (21-35% reduction in percent disease)

Structure (SMILES): CCC(C=O)CC [2-ethylbutyraldehyde]
- Reduction in % Disease [3, 6]: x (0-20% reduction in percent disease)
- % disease at 100 ppm of substance alone ([3]; untreated check 92%, Table 9): 65%

Structure (SMILES): N[C@@H](CC(=O)O)C(=O)O [Aspartic acid]
- Reduction in % Disease [3, 9]: xx (21-35% reduction in percent disease)
- Reduction in % Disease [3, 10]: xx (21-35% reduction in percent disease)
- % disease at 1000 ppm of substance alone ([3]; untreated check 100%): 100%

Structure (SMILES): CC(=O)CC(C)C [4-methyl-2-pentanone]
- Reduction in % Disease [3, 11]: x (0-20% reduction in percent disease)
- % disease at 100 ppm of substance alone ([3]; untreated check 100%, Table 10): 93%

Structure (SMILES): CC(C)CCN [Isoamyl amine]
- Reduction in % Disease [3, 9]: xxx (36-50% reduction in percent disease)
- Reduction in % Disease [3, 10]: xxx (36-50% reduction in percent disease)
- % disease at 1000 ppm of substance alone ([3]; untreated check 100%): 100%

Structure (SMILES): C=CCON=CCC(C)C [Compound X]
- Reduction in percent disease PHYTIN [2, 12]: xx (21-35% reduction in percent disease)

Structure (SMILES): CC(C)CO [Isobutanol]
- Reduction in percent disease PLASVI [1, 4]: xxxx (>50% reduction in percent disease)
- % disease at 500 ppm of substance alone PLASVI [1]: 78%
- Reduction in percent disease PHYTIN [2, 5]: xxx (36-50% reduction in percent disease)
- % disease at 500 ppm of substance alone PHYTIN [2]: 95%
- Reduction in % Disease [3, 9]: x (0-20% reduction in percent disease)
- Reduction in % Disease [3, 7]: x (0-20% reduction in percent disease)
- Reduction in % Disease [3, 10]: xxxx (>50% reduction in percent disease)
- % disease at 500 ppm of substance alone [3]: 95%
- % disease at 1000 ppm of substance alone ([3]; untreated check 100%): 100%

— patent US20090246293A1 (priority 2008, published 2009)
